Five compounds from publication PMC10610505, “Synthesis and Biological Evaluation of Some New 3-Aryl-2-thioxo-2,3-dihydroquinazolin-4(1H)-ones and 3-Aryl-2-(benzylthio)quinazolin-4(3H)-ones as Antioxidants; COX-2, LDHA, α-Glucosidase and α-Amylase Inhibitors; and Anti-Colon Carcinoma and Apoptosis-Inducing Agents” (Pharmaceuticals, 2023) can be followed below.

Like-named read-outs stand apart in the source and are kept apart here.

A short description of experiment [1]: DPPH radical scavenging assay. In kind it is biochemical. Particulars: for Mean IC50 for scavenging initial DPPH radicals: mean ± SD of three replicates; for IC50: mean ± SD, converted from mg/mL, read-out: Mean IC50 for scavenging initial DPPH radicals (converted). An excerpt: In principle, the antioxidant power of a compound in this assay is correlated to its tendency to reduce the stable, purple-colored DPPH radical through a hydrogen atom transfer (HAT) mechanism and/or a single electron transfer mechanism, thereby converting it to the yellow-colored 2,2-diphenyl-1-picrylhydrazine, whereby this reduction is accompanied by a depletion in the amount of the initial DPPH radicals and a change in the absorbance of the test solution accordingly, which can be detected relative to the blank solution at λ = 517 nm.
The antioxidant potencies of all synthesized compounds were investigated using a 1,1 diphenyl-2-picrylhydrazyl (DPPH) radical scavenging assay according to the protocol described by Bersuder et al.. In brief, a 0.5 mL volume of DPPH ethanolic solution was mixed with an equal volume of each sample concentration (i.e., the test compound or butylated hydroxytoluene, BHT, which was used as the reference antioxidant in the positive control experiment), shaken strongly, and incubated at room temperature for 1 h in darkness. The absorbance of the residual DPPH radicals was measured at λ = 519 nm and compared to the negative control (without the test compound or reference antioxidant). The DPPH radical scavenging power was calculated using the following formula: scavenging efficiency (%) = (1 − Acompound/AControl) × 100, where Acompound and Acontrol are the absorbance of the tested compound and the negative control, respectively. […] Additionally, the ± SD values were calculated from three independent triplicate measurements.
Background: The DPPH test is a chemical assay of radical scavenging.

For a further experiment, the target named is T1, COX-2 (Homo sapiens, UniProt P35354).
T1 construct: purchased Cayman Chemical Company 701080
T1 sequence (P35354 18-604): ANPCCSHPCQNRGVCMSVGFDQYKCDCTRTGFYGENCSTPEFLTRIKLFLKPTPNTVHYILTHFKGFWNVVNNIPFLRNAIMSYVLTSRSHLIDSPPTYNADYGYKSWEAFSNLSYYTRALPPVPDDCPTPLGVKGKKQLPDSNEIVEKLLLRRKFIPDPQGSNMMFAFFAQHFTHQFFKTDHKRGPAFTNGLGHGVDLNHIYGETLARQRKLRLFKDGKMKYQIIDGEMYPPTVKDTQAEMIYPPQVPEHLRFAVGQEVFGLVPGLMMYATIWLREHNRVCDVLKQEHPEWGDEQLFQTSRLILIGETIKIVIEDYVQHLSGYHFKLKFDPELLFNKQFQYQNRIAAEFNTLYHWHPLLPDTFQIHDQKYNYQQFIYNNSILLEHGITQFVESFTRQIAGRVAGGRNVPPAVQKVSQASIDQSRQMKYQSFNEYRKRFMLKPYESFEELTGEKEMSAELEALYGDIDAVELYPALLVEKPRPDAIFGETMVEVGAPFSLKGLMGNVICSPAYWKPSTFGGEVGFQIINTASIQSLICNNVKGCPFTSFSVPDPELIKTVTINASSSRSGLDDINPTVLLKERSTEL
Description: COX-2 inhibitory screening assay (Cayman kit). Particulars: for Increase in COX-2 inhibitory efficiency by duplicating the concentration: % inhibition at 0.200 mg/mL divided by % inhibition at 0.100 mg/mL; for inhibition at 100 µg/mL: at 0.100 mg/mL; for inhibition at 100 µg/mL / inhibition at 200 µg/mL: read-out: COX-2 mean % inhibition ± SD; for inhibition at 200 µg/mL: at 0.200 mg/mL. In kind it is biochemical. As to the method: Each compound of the two series, 3a–h and 5a–h, was resuspended in 100% DMSO at a final concentration of 10 mg/mL. […] Briefly, 10 µL of the tested compound was added to a mixture of the reaction buffer solution (160 µL of 0.1 M Tris-HCl, pH 8.0, in the presence of 2 mM phenol and 5 mM EDTA), COX-2 (10 µL) and heme (10 µL). After a 10 min incubation at 37 °C, the reaction was started by adding arachidonic acid (10 µL), rapidly mixed and kept at 37 °C for 2 min. PGF2α generated via PGH2 reduction with stannous chloride (30 µL) was incubated at room temperature for 5 min. The PGF2α amount was then determined via an enzyme immunoassay. Prior to incubation with the COX-2 reaction (at room temperature 18 h), the 96-well plate was previously coated with a mouse anti-rabbit monoclonal antibody. Unbound reagents were removed by washing the plate followed by adding Ellman’s reagent to the well. The reaction product displaying a distinct yellow color was measured at 410 nm using a UV microplate reader. The % inhibition was calculated by comparing the PGF2α produced in the compound-treated samples with a control sample, using the following equation: % inhibition is equal to [([PGF2α]control − [PGF2α]sample) /[PGF2α ]control ] × 100. […] The COX-2 inhibitory efficiency was expressed as an inhibition percentage, which was determined via a comparison with the negative control experiments.

The target of experiment [2] is purified recombinant human LDHA protein (Homo sapiens, UniProt P00338). The experiment in a line: Lactate dehydrogenase A (LDHA) inhibitory assay. It counts as biochemical. Conditions: for Fold change of LDHA inhibition as compared to 0.1 mg/mL: % inhibition at 0.200 mg/mL divided by % inhibition at 0.100 mg/mL; for inhibition at 100 µg/mL: at 0.1 mg/mL; for inhibition at 100 µg/mL / inhibition at 200 µg/mL: read-out: LDHA mean % inhibition ± SD; for inhibition at 200 µg/mL: at 0.2 mg/mL. On the procedure: The LDHA inhibitory effectiveness was investigated by measuring the amounts of consumed NADH [73]. […] The fluorescence of NADH, which has an excitation wavelength of 340 nm and an emission wavelength of 460 nm, was detected using a spectrofluorometer. […] The LDHA inhibitory efficiency was expressed as an inhibition percentage, which was determined via a comparison with the negative control experiments.

Experiment [3] concerns LoVo human colon carcinoma cells. The experiment in a line: Viability assay (LDH release), LoVo. In kind it is cell-based. Conditions: Homo sapiens, LoVo, 48 h, read-out: Mean % of viable cells ± SD, LoVo. On the procedure: (§1) The anticancer activities of all the synthesized compounds were assessed against two human colon carcinoma cell lines, namely LoVo and HCT-116 (Table 6), via the determination of the mean percents of the viable cancerous cells remaining after being incubated with 200 µg/mL of each test compound for 48 h using LDH assay.
(§2) The samples were diluted in Dulbecco’s Modified Eagle’s Medium, consisting of 10% fetal bovine serum (FBS), added to cells grown and cultured for 24 h in a 5% CO2-humidified incubator at 37 °C. Thereafter, the activity of lactate dehydrogenase released from damaged cells was determined in the collected supernatant aliquots using an ELISA end-point assay (Benchmark Plus, Bio-Rad, CA, USA); 0.1% Triton X-100 in the assay medium and the assay medium only were used as the positive and negative controls, respectively. Cell viability was expressed as a relative percentage of the OD values (at 550 nm) for compound-treated cells (final concentration of 200 µg /mL) and the negative control, which was shown as the mean % ± SD (n = 3). The results of the viability assays for the potential cytotoxic candidates were compared with the % of viable human umbilical vein endothelial cells (HUVEC) at the same concentration. These cells were grown in Dulbecco’s Modified Eagle’s Medium (PAN-Biotech; Barcelona, Spain) containing 10% FBS (Sigma Aldrich; St. Quentin-Fallavier, France), 2 mM Glutamine (Sigma Aldrich), 100 units/mL penicillin and […] streptomycin (Life Technologies; Paisley, UK).

Experiment [4] concerns HCT-116 human colon carcinoma cells. Description: Viability assay (LDH release), HCT-116. It counts as cell-based. Particulars: Homo sapiens, read-out: Mean % of viable cells ± SD, HCT-116. As to the method: as §1, §2
(Release of lactate dehydrogenase indicates damage to the cell membrane.)

The target in the next experiment is α-amylase. The experiment in a line: In vitro α-amylase (AA) inhibition assay. Particulars: mean ± SD of three replicates; for IC50: read-out: Mean IC50 α-Amylase (AA).

The IC50 is the midpoint of a concentration-inhibition curve. What is called inhibition is the change of the read-out against control, counted positive when it falls.

Description for α-amylase: Then, 180 µL of Labtest (the amylase substrate) was added and the samples were incubated for 8 min, followed by measuring the first reaction at 620 nm to obtain (X1). Afterwards, the reaction mixture was incubated for an additional 5 min at 37 °C; then, the second reaction was measured to obtain the final reading (X2). […] The results were expressed as IC50 µg/mL (as well as µM) and were determined from the standard curves.

`COc1ccc(Br)c(CSc2nc3ccc(Cl)cc3c(=O)n2-c2ccc([N+](=O)[O-])cc2)c1` [Compound 5f, 2-(2-Bromo-5-methoxy-benzylsulfanyl)-6-chloro-3-(4-nitro-phenyl)-3H-quinazolin-4-one]: in experiment [1], the “Mean IC50 for scavenging initial DPPH radicals” value worked out at 241 ± 13 µg/mL and the IC50 is 452 µM. For the same compound, on COX-2, the “Increase in COX-2 inhibitory efficiency by duplicating the concentration” value (from here on “Increase in COX-2 inhibitory efficiency”) was 1.80 fold, the inhibition at 100 µg/mL stood at 28.9 ± 2.69% and the inhibition at 200 µg/mL came out at 52 ± 2.83%. Besides, in experiment [2], the “Fold change of LDHA inhibition as compared to 0.1 mg/mL” value (from here on “Fold change of LDHA inhibition”) came to 1.60 fold, the inhibition at 100 µg/mL is 31.9 ± 2.48% and the inhibition at 200 µg/mL was 51 ± 3.61%. In addition, in experiment [3] (200 µg/mL), the viability at 200 µg/mL stood at 84.3 ± 3.51%. The viability at 200 µg/mL in experiment [4] (HCT-116, 200 µg/mL, 48 h) was 76 ± 1.73%. For the same compound, on α-amylase, the “Mean IC50 α-Amylase (AA)” value came to 106.667 ± 5.033 µg/mL and the IC50 is 200 µM.
As to `COc1cc2nc(SCc3cccc([N+](=O)[O-])c3)n(-c3cccc(C(F)(F)F)c3)c(=O)c2cc1OC` [Compound 5c, 2-(3-Nitrobenzylsulfanyl)-6,7-dimethoxy-3(3-trifluoromethyl-phenyl)-3H-quinazolin-4-one], in experiment [1], the “Mean IC50 for scavenging initial DPPH radicals” value was 186 ± 6 µg/mL and the IC50 is 359 µM. In addition, at COX-2, the “Increase in COX-2 inhibitory efficiency” value amounted to 1.41 fold, the inhibition at 100 µg/mL worked out at 18.6 ± 3.46% and the inhibition at 200 µg/mL was 26.2 ± 4.03%. For the same compound, in experiment [2], the “Fold change of LDHA inhibition” value worked out at 1.67 fold, the inhibition at 100 µg/mL is 8.55 ± 1.06% and the inhibition at 200 µg/mL stood at 14.3 ± 1.56%. Further, the viability at 200 µg/mL in experiment [3] (200 µg/mL) came to 78.3 ± 3.51%. For the same compound, the viability at 200 µg/mL in experiment [4] (HCT-116, 200 µg/mL, 48 h) worked out at 82.3 ± 2.52%. Besides, on α-amylase, the “Mean IC50 α-Amylase (AA)” value stood at 197.333 ± 4.509 µg/mL and the half-inhibitory concentration (IC50) is 381 µM.
Take `O=c1c2cc(Br)ccc2[nH]c(=S)n1-c1ccc(C(F)(F)F)cc1` [Compound 3e, 6-Bromo-2-thioxo-3-(4-trifluoromethyl-phenyl)-2,3-dihydro-1H-quinazolin-4-one]: in experiment [1], the “Mean IC50 for scavenging initial DPPH radicals” value was 290 ± 28 µg/mL and the IC50 is 723 µM. Further, at COX-2, the “Increase in COX-2 inhibitory efficiency” value is on record as 1.50 fold, the inhibition at 100 µg/mL was 10.4 ± 1.7% and the inhibition at 200 µg/mL turned out to be 15.7 ± 0.495%. In experiment [2], the “Fold change of LDHA inhibition” value is 1.62 fold, the inhibition at 100 µg/mL worked out at 22.1 ± 1.2% and the inhibition at 200 µg/mL came out at 36 ± 1.34%. The viability at 200 µg/mL in experiment [3] is 90.7 ± 3.51%. Moreover, the viability at 200 µg/mL in experiment [4] (HCT-116, 48 h) amounted to 92.3 ± 2.52%. At α-amylase, the “Mean IC50 α-Amylase (AA)” value was determined as 252.00 ± 4.583 µg/mL and the IC50 is 628 µM.
As to `O=c1c2cc(Cl)ccc2[nH]c(=S)n1-c1ccc(C(F)(F)F)cc1` [Compound 3d, 6-Chloro-2-thioxo-3-(4-trifluoromethyl-phenyl)-2,3-dihydro-1H-quinazolin-4-one], in experiment [1], the “Mean IC50 for scavenging initial DPPH radicals” value turned out to be 179 ± 16 µg/mL and the IC50 is 502 µM. Further, at COX-2, the “Increase in COX-2 inhibitory efficiency” value is recorded as 1.62 fold, the inhibition at 100 µg/mL amounted to 20.2 ± 1.13% and the inhibition at 200 µg/mL is 32.8 ± 2.48%. Moreover, in experiment [2], the “Fold change of LDHA inhibition” value was 1.59 fold, the inhibition at 100 µg/mL came out at 33.5 ± 2.12% and the inhibition at 200 µg/mL stood at 53.5 ± 2.12%. In experiment [3], the viability at 200 µg/mL was 87 ± 1.73%. Further, the viability at 200 µg/mL in experiment [4] (HCT-116, 48 h) is 96 ± 1.73%. In addition, at α-amylase, the “Mean IC50 α-Amylase (AA)” value is listed as 335.667 ± 3.055 µg/mL and the IC50 is 941 µM.
As for `O=c1c2cc(Br)ccc2nc(SCc2cccc([N+](=O)[O-])c2)n1-c1ccc([N+](=O)[O-])cc1` [Compound 5g, 2-(3-Nitro-benzylsulfanyl)-6-bromo-3-(4-nitro-phenyl)-3H-quinazolin-4-one], in experiment [1], the “Mean IC50 for scavenging initial DPPH radicals” value came to 200 ± 14 µg/mL and the IC50 was 390 µM. In addition, at COX-2, the “Increase in COX-2 inhibitory efficiency” value was 1.83 fold, the inhibition at 100 µg/mL turned out to be 14.2 ± 1.77% and the inhibition at 200 µg/mL was 26 ± 2.83%. Further, in experiment [2], the “Fold change of LDHA inhibition” value turned out to be 1.75 fold, the inhibition at 100 µg/mL was 15.8 ± 2.05% and the inhibition at 200 µg/mL was found to be 27.7 ± 2.55%. The viability at 200 µg/mL in experiment [3] came to 74.7 ± 2.52%. In experiment [4] (HCT-116, 48 h), the viability at 200 µg/mL was 66.3 ± 3.06%. At α-amylase, the “Mean IC50 α-Amylase (AA)” value stood at 339.000 ± 4.000 µg/mL and the IC50 was 660 µM.
